Test results taken from patent publication US11084829B2, “Ubiquitin-specific-processing protease 7 (USP7) modulators and uses thereof” (RAPT THERAPEUTICS, INC., priority 2018, dated 2021).

Biological target: USP7 (Homo sapiens, UniProt Q93009)
Experiment: USP7 inhibitory potency (IC50)
Format: biochemical
Experimental: Activity for compounds described herein is provided in Table 2, wherein potency levels are provided as follows: (Potency: USP7 IC50: A<0.01 μM; B=0.01-0.1 μM; C=>0.1 μM.

USP7, sequence (Q93009 whole entry): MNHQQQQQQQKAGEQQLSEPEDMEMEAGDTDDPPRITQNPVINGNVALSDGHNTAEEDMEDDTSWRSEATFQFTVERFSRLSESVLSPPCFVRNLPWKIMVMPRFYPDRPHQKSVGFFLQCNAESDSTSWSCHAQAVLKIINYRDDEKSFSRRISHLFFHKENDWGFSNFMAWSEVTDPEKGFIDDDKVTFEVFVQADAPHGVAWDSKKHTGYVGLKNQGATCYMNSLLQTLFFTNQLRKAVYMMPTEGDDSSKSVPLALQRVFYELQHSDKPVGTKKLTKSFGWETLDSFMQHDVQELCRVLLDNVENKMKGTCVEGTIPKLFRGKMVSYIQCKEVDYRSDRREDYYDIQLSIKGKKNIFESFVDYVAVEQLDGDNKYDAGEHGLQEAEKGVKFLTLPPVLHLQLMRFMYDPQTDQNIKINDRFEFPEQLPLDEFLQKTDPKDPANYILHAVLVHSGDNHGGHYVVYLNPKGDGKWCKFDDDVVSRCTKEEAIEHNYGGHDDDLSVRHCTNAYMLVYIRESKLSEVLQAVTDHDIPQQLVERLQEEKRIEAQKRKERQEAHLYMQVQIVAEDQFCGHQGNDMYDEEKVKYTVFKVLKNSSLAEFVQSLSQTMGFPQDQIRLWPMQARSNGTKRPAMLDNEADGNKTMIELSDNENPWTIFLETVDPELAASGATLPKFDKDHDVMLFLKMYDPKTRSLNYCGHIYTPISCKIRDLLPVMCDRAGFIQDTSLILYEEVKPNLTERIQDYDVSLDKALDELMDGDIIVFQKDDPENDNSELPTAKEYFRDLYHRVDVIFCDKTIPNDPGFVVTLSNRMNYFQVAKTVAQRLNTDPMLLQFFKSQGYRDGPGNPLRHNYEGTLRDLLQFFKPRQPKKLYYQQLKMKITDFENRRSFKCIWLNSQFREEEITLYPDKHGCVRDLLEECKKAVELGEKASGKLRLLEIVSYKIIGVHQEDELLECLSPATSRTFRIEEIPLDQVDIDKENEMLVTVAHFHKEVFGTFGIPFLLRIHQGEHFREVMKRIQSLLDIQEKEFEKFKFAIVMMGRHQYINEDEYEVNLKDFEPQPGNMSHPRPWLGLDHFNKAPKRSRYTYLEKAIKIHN

| Structure (SMILES) | IC50 [nM] |
| --- | --- |
| Cc1cc(Cl)cc(-c2ncnc3cc(CN4C(=O)CCC4=O)sc23)c1CC1CNCC2(COC2)O1 (stereo not shown) [Example 237, 1-((4-(2-((2,5-dioxa-8-azaspiro[3.5]nonan-6-yl)methyl)-5-chloro-3-methylphenyl)thieno[3,2-d]pyrimidin-6-yl)methyl)pyrrolidine-2,5-dione] | < 10 |
| Cc1cc(Cl)cc(-c2ccnc3cc(CN4C(=O)C5C(C4=O)C5(C)C)sc23)c1CC1OCCNC1=O (stereo not shown) [Example 101, 3-((7-(5-chloro-3-methyl-2-((3-oxomorpholin-2-yl)methyl)phenyl)thieno[3,2-b]pyridin-2-yl)methyl)-6,6-dimethyl-3-azabicyclo[3.1.0]hexane-2,4-dione] | 10 to 100 |
| Cc1cc(Cl)cc(-c2ncnc3cc(CN4C(=O)CC[C@@H]4C(=O)O)sc23)c1C[C@@H]1CNCC(C)(C)O1 [Example 225, (R)-1-((4-(5-chloro-2-(((R)-6,6-dimethylmorpholin-2-yl)methyl)-3-methylphenyl)thieno[3,2-d]pyrimidin-6-yl)methyl)-5-oxopyrrolidine-2-carboxylic acid] | > 100 |
| Cc1cc(Cl)cc(-c2ccnc3cc([C@H](C)N4C(=O)C5CC5C4=O)sc23)c1C[C@@H]1CNCC(C)(C)O1 (stereo partly drawn) [Example 137, 3-((S)-1-(7-(5-chloro-2-(((R)-6,6-dimethylmorpholin-2-yl)methyl)-3-methylphenyl)thieno[3,2-b]pyridin-2-yl)ethyl)-3-azabicyclo[3.1.0]hexane-2,4-dione] | < 10 |
| Cc1cc(Cl)cc(-c2ncnc3cc(CN4C(=O)CN(CC(F)(F)F)C4=O)sc23)c1CN1[C@@H](C)CNC[C@@H]1C [Example 272, 3-((4-(5-chloro-2-(((2S,6S)-2,6-dimethylpiperazin-1-yl)methyl)-3-methylphenyl)thieno[3,2-d]pyrimidin-6-yl)methyl)-1-(2,2,2-trifluoroethyl)imidazolidine-2,4-dione] | < 10 |
| Cc1cc(Cl)cc(-c2ncnc3cc(Cn4cccc4C#N)sc23)c1C[C@@H]1CNCC(C)(C)O1 [Example 239, (R)-1-((4-(5-chloro-2-((6,6-dimethylmorpholin-2-yl)methyl)-3-methylphenyl)thieno[3,2-d]pyrimidin-6-yl)methyl)-1H-pyrrole-2-carbonitrile] | > 100 |
| C[C@H]1CNC[C@H](C)N1Cc1c(Cl)cc(Cl)cc1-c1ccnc2cc(CN3C(=O)CCC3=O)sc12 [Example 48, 1-((7-(3,5-dichloro-2-(((2S,6S)-2,6-dimethylpiperazin-1-yl)methyl)phenyl)thieno[3,2-b]pyridin-2-yl)methyl)pyrrolidine-2,5-dione] | < 10 |
| Cc1cc(Cl)cc(-c2ncnc3cc(CN4C(=O)NC(C(C)C)C4=O)sc23)c1C[C@@H]1CNCCO1 (stereo partly drawn) [Example 246, 3-((4-(5-chloro-3-methyl-2-(((R)-morpholin-2-yl)methyl)phenyl)thieno[3,2-d]pyrimidin-6-yl)methyl)-5-isopropylimidazolidine-2,4-dione] | < 10 |
| Cc1cc(Cl)cc(-c2ccnc3cc(Cn4c(=O)ccn(C5CCC5)c4=O)sc23)c1CC1CNCCO1 (stereo not shown) [Example 111, 3-((7-(5-chloro-3-methyl-2-(morpholin-2-ylmethyl)phenyl)thieno[3,2-b]pyridin-2-yl)methyl)-1-cyclobutylpyrimidine-2,4(1H,3H)-dione] | < 10 |
| Cc1cc(Cl)cc(-c2ncnc3cc(CN4C(=O)C5CC5C4=O)sc23)c1C[C@@H]1CNC[C@@H](C)O1 (stereo partly drawn) [Example 155, 3-((4-(5-chloro-3-methyl-2-(((2R,6R)-6-methylmorpholin-2-yl)methyl)phenyl)thieno[3,2-d]pyrimidin-6-yl)methyl)-3-azabicyclo[3.1.0]hexane-2,4-dione] | < 10 |
| CC1(C)CNCC(Cc2c(-c3ncnc4cc(CN5C(=O)C6CC6C5=O)sc34)cc(Cl)cc2C(F)F)O1 (stereo not shown) [Example 250, 3-((4-(5-chloro-3-(difluoromethyl)-2-((6,6-dimethylmorpholin-2-yl)methyl)phenyl)thieno[3,2-d]pyrimidin-6-yl)methyl)-3-azabicyclo[3.1.0]hexane-2,4-dione] | < 10 |
| COCc1cc2ncnc(-c3cc(Cl)cc(C)c3C[C@@H]3CNCC(C)(C)O3)c2s1 [Example 269, (R)-6-(4-chloro-2-(6-(methoxymethyl)thieno[3,2-d]pyrimidin-4-yl)-6-methylbenzyl)-2,2-dimethylmorpholine] | > 100 |
| CC[C@H]1CNCCN1Cc1c(C)cc(Cl)cc1-c1ncnc2cc(CN3C(=O)C4C(C3=O)C4(C)C)sc12 (stereo partly drawn) [Example 52, 3-((4-(5-chloro-2-(((S)-2-ethylpiperazin-1-yl)methyl)-3-methylphenyl)thieno[3,2-d]pyrimidin-6-yl)methyl)-6,6-dimethyl-3-azabicyclo[3.1.0]hexane-2,4-dione] | 10 to 100 |
| Cc1cc(Cl)cc(-c2ncnc3cc(CN4C(=O)N(C)C(C)(C)C4=O)sc23)c1C[C@@H]1CNCC(C)(C)O1 [Example 233, (R)-3-((4-(5-chloro-2-((6,6-dimethylmorpholin-2-yl)methyl)-3-methylphenyl)thieno[3,2-d]pyrimidin-6-yl)methyl)-1,5,5-trimethylimidazolidine-2,4-dione] | < 10 |
| Cc1cc(C)c(CN2CCNC[C@@H]2C)c(-c2ncnc3cc(CN4C(=O)C5CC5C4=O)sc23)c1 (stereo partly drawn) [Example 71, 3-((4-(3,5-dimethyl-2-(((S)-2-methylpiperazin-1-yl)methyl)phenyl)thieno[3,2-d]pyrimidin-6-yl)methyl)-3-azabicyclo[3.1.0]hexane-2,4-dione] | > 100 |
| Cc1cc(Cl)cc(-c2ccnc3cc(CN4C(=O)C5CC5C4=O)sc23)c1CC1CNCC(C)(C)O1 (stereo not shown) [Example 120, 3-((7-(5-chloro-2-((6,6-dimethylmorpholin-2-yl)methyl)-3-methylphenyl)thieno[3,2-b]pyridin-2-yl)methyl)-3-azabicyclo[3.1.0]hexane-2,4-dione] | < 10 |
| Cc1cc(Cl)cc(-c2ccnc3cc(CN4C(=O)C5CC5C4=O)sc23)c1CC1CNCC2(CCC2)O1 (stereo not shown) [Example 131, 3-((7-(2-((5-oxa-8-azaspiro[3.5]nonan-6-yl)methyl)-5-chloro-3-methylphenyl)thieno[3,2-b]pyridin-2-yl)methyl)-3-azabicyclo[3.1.0]hexane-2,4-dione] | < 10 |
| Cn1ccc(=O)n(Cc2cc3nccc(-c4cc(Cl)cc(Cl)c4CC4CNCCO4)c3s2)c1=O (stereo not shown) [Example 142, 3-((7-(3,5-dichloro-2-(morpholin-2-ylmethyl)phenyl)thieno[3,2-b]pyridin-2-yl)methyl)-1-methylpyrimidine-2,4(1H,3H)-dione] | < 10 |
| Cc1cc(Cl)cc(-c2ccnc3cc(CN4C(=O)CCC4=O)sc23)c1CN1CCN(C)C[C@@H]1C [Example 3, (S)-1-((7-(5-chloro-2-((2,4-dimethylpiperazin-1 yl)methyl)-3-methylphenyl)thieno[3,2-b]pyridin-2-yl)methyl)pyrrolidine-2,5-dione] | < 10 |
| Cc1cc(Cl)cc(-c2ncnc3cc(CN4C(=O)CCN(C)C4=O)sc23)c1C[C@@H]1CNCC(C)(C)O1 [Example 217, (R)-3-((4-(5-chloro-2-((6,6-dimethylmorpholin-2-yl)methyl)-3-methylphenyl)thieno[3,2-d]pyrimidin-6-yl)methyl)-1-methyldihydropyrimidine-2,4(1H,3H)-dione] | < 10 |
| Cc1cc(Cl)cc(-c2ccnc3cc(CN4C(=O)CCC4=O)sc23)c1CC1CNCC2(CCC2)O1 (stereo not shown) [Example 143, 1-((7-(2-((5-oxa-8-azaspiro[3.5]nonan-6-yl)methyl)-5-chloro-3-methylphenyl)thieno[3,2-b]pyridin-2-yl)methyl)pyrrolidine-2,5-dione] | < 10 |
| Cc1cc(Cl)cc(-c2ncnc3cc(CN4C(=O)CCN(CCCC(=O)O)C4=O)sc23)c1C[C@@H]1CNCCO1 [Example 265, (R)-4-(3-((4-(5-chloro-3-methyl-2-(morpholin-2-ylmethyl)phenyl)thieno[3,2-d]pyrimidin-6-yl)methyl)-2,4-dioxotetrahydropyrimidin-1(2H)-yl)butanoic acid] | 10 to 100 |
| Cc1cc(Cl)cc(-c2ccnc3cc(CN4C(=O)C5CC5C4=O)sc23)c1C[C@H]1O[C@H](C)CNC1=O (stereo partly drawn) [Example 105, 3-((7-(5-chloro-3-methyl-2-(((2R,6R)-6-methyl-3-oxomorpholin-2-yl)methyl)phenyl)thieno[3,2-b]pyridin-2-yl)methyl)-3-azabicyclo[3.1.0]hexane-2,4-dione] | > 100 |
| Cc1cc(Cl)cc(-c2ccnc3cc(CN4C(=O)C5CC5C4=O)sc23)c1C[C@H]1OCCN[C@H]1C (stereo partly drawn) [Example 106, 3-((7-(5-chloro-3-methyl-2-(((2R,3 S)-3-methylmorpholin-2-yl)methyl)phenyl)thieno[3,2-b]pyridin-2-yl)methyl)-3-azabicyclo[3.1.0]hexane-2,4-dione] | < 10 |
| Cc1cc(Cl)cc(-c2ncnc3cc(CN4C(=O)CCC4=O)sc23)c1C[C@@H]1CNCCO1 [Example 197, (R)-1-((4-(5-chloro-3-methyl-2-(morpholin-2-ylmethyl)phenyl)thieno[3,2-d]pyrimidin-6-yl)methyl)pyrrolidine-2,5-dione] | < 10 |
| CC1(C)C2C(=O)N(Cc3cc4nccc(-c5cc(Cl)cc(Cl)c5CC5CNCCO5)c4s3)C(=O)C21 (stereo not shown) [Example 140, 3-((7-(3,5-dichloro-2-(morpholin-2-ylmethyl)phenyl)thieno[3,2-b]pyridin-2-yl)methyl)-6,6-dimethyl-3-azabicyclo[3.1.0]hexane-2,4-dione] | < 10 |
| Cc1cc(Cl)cc(-c2ncnc3cc(CN4CCCC4=O)sc23)c1CN1C[C@@H](C)NC[C@@H]1C [Example 81, 1-((4-(5-chloro-2-(((2S,5R)-2,5-dimethylpiperazin-1-yl)methyl)-3-methylphenyl)thieno[3,2-d]pyrimidin-6-yl)methyl)pyrrolidin-2-one] | > 100 |
| Cc1cc(Cl)cc(-c2ccnc3cc(CN4C(=O)CN(C)C4=O)sc23)c1CC1CNCC(C)(C)O1 (stereo not shown) [Example 121, 3-((7-(5-chloro-2-((6,6-dimethylmorpholin-2-yl)methyl)-3-methylphenyl)thieno[3,2-b]pyridin-2-yl)methyl)-1-methylimidazolidine-2,4-dione] | < 10 |
